Measured values from article PMC8623418, “Novel Multitarget Hydroxamic Acids with a Natural Origin CAP Group against Alzheimer’s Disease: Synthesis, Docking and Biological Evaluation” (Pharmaceutics, 2021).
Like-named read-outs stand apart in the source and are kept apart here.

How the values were obtained:
[1] = test system: lipid peroxidation (LPO) of rat brain homogenate; test: Lipid peroxidation (LPO) of rat brain homogenate, TBARS test; type: biochemical; details: substances at 100 μM, mean ± SEM; for % of Activity, Inhibition of LPO, Fe (II): Fe (II)-induced; for % of Activity, Inhibition of LPO, t-BHP: t-BHP-induced
Method: To obtain the brain homogenate, rats preliminarily anesthetized with CO2 were decapitated with a guillotine. The brain was homogenized in a buffer containing KCl (120 mM) and HEPES (20 mM), pH = 7.4 at 4 °C, and centrifuged at 1500 rpm to obtain a supernatant. The protein was quantified according to the standard microbiuret method.
To investigate the effect of the compounds on lipid peroxidation (LPO) of rat brain homogenate, we used the modified version of the TBARS test, which is based on the reaction of 2-thiobarbituric acid with the end LPO product—malonic dialdehyde (MDA). The plate well, according to the experimental scheme, contained the compounds under study (100 μM), rat brain homogenate (2 mg/mL), as well as ferrous iron ions ([…]) at a concentration of 500 μM and 1.6 mM tert-butyl hydroxyperoxide as an initiator. After 30 min of incubation at 37 °C, TBARS reagent was added to all samples, incubated for 90 min at 90 °C, and centrifuged at 6000 rpm for 15 min. The optical density of the selected supernatant was measured on a Victor 3 plate reader (Perkin Elmer) at λ = 540 nm.
A rat brain homogenate preparation containing fragments of cell membranes was used as a model system to investigate the antioxidant activity of the hydroxamic acids. To initiate the process of lipid peroxidation, ferrous ions were used to trigger the Fenton reaction, during which the iron valence changes and a highly reactive hydroxyl radical is formed, and tert-butyl hydroxyperoxide as a direct source of free radicals.

[2] = DPPH test of antiradical activity; details: substances at 100 μM, mean ± SEM
Method: The DPPH test was used to examine antiradical activity based on the ability of a stable chromogen radical of 2,2-diphenyl-1-picrylhydrazyl (DPPH) to remove a hydrogen atom, which is accompanied by a change in the absorption maximum in the electronic absorption spectra. The amount of reduced DPPH was measured using a Cytation ™ 3 multifunctional plate analyzer (BioTek Instruments, Inc., Winooski, VT, USA) at a wavelength of 517 nm.
The antiradical activity of the test compounds was evaluated by the DPPH test, based on the ability of antioxidants to donate an electron to the stable chromogen radical DPPH, converting it into a nonradical form and neutralizing its activity. […] The chromogenic free radical DPPH used in this test has a large size, and substances even with a similar chemical structure may have different antiradical properties due to spatially difficult access.

SH-SY5Y cells = test: MTT cell viability, SH-SY5Y; type: cell-based; details: Homo sapiens, MTT test
Method: (§1) The effect of the hydroxamic acids on the viability of cells obtained from human embryonic kidneys, HEK 293, as well as the native form of human neuroblastoma, SH-SY5Y, was evaluated in the MTT test. Using a multifunctional flatbed analyzer, Cytation™3 (BioTek Instruments, Inc., Winooski, VT, USA), the optical density was determined at a wavelength of 530 nm. Based on the dose-dependent curves, the concentration values leading to 50% inhibition of cell population growth (IC50) were calculated.
(§2) Due to the fact that most compounds of the class of hydroxamic acids have high cytotoxic activity and are mainly used as anticancer drugs, their use as neuroprotective drugs is limited. Since the goal of our work was to search for agents for the pharmacological correction of neurodegenerative diseases, a necessary part of the biological activity study of the synthesized hydroxamic acids was to determine their effect on the survival of cell cultures. In our work, we used neuron-like neuroblastoma cells SH-SY5Y and a healthy cell line isolated from the human embryonic kidney, HEK 293.

HEK 293 cells = test: MTT cell viability, HEK 293; type: cell-based; details: Homo sapiens, HEK293; HEK-293, MTT test
Method: as §1, §2

HDAC6 = biological target: T1, HDAC6 (Homo sapiens, UniProt Q9UBN7); test: HDAC6 enzyme activity, FLUOR DE LYS fluorometric kit; type: biochemical
T1 construct: purchased Enzo Life Sciences (Enzo Biochem, New York, NY, USA)
T1 sequence (Q9UBN7 1-1215): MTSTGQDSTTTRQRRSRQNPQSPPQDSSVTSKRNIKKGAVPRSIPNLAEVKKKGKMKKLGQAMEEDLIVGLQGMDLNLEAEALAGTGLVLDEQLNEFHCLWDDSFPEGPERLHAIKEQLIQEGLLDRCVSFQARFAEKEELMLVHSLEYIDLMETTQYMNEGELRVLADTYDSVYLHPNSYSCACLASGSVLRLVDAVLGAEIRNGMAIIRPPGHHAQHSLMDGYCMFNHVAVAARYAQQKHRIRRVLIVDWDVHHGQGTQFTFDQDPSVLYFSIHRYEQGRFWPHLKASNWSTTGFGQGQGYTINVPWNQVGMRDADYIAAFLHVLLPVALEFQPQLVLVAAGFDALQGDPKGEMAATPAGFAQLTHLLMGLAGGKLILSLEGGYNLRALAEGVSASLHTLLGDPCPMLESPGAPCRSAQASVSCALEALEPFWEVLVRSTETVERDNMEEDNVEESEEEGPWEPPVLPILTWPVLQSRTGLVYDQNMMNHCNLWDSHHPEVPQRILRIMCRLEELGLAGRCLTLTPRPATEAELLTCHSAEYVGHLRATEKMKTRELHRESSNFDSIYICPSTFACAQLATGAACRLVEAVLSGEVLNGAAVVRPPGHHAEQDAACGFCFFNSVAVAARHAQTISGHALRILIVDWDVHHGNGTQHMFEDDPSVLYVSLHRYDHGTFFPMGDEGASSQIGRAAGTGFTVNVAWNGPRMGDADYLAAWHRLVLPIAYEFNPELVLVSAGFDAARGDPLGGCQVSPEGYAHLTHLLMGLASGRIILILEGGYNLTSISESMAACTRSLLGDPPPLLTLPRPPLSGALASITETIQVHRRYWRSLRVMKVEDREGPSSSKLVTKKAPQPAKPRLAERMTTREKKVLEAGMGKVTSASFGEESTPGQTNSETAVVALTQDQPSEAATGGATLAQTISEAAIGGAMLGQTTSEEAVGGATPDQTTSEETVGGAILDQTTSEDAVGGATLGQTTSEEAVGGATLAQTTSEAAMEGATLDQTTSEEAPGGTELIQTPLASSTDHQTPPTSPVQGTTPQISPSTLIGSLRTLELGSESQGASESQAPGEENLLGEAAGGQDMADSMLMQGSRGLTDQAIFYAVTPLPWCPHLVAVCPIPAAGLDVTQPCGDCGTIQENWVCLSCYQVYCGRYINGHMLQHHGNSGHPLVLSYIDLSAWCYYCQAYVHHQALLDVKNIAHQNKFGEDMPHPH

β-amyloid 1–40 = β-amyloid 1–40 aggregation, Thioflavin T fluorescence; type: biochemical; details: 100 μM, 72 h incubation
Method: (§3) The effect of the studied compounds on the aggregation of β-amyloid (1–40/1–42) was analyzed using the method of recording Thioflavin T fluorescence (10 µM) for 72 h at 37 °C. The fluorescence signal was measured using a multifunctional flatbed analyzer, the Cytation ™ 3 (BioTek Instruments, Inc., Winooski, VT, USA), at λex = 450 nm, λem = 480 nm.
(§4) The effect of hydroxamic acids on the stage of aggregation of the pathological β-amyloid peptide was investigated for 72 h using two model systems—fragments Aβ1–40 and Aβ1–42. The fluorophore Thioflavin T was used as an indicator of the ongoing fibrillation process, the interaction of which with proteins in the state of amyloid fibrils leads to an increase in the fluorescence signal.

β-amyloid 1–42 = test system: T2, β-amyloid 1–42; test: β-amyloid 1–42 aggregation, Thioflavin T fluorescence; type: biochemical; details: 100 μM, 72 h incubation
T2 construct: fragments Aβ1–40 and Aβ1–42
Method: as §3, §4

[3] = mean ± SEM, read-out: IC50 HDAC6 Inhibitory Activity

| IC50 (SH-SY5Y cells) | melting point | IC50 (HDAC6; [3]) | IC50 (HDAC6; Table S2, used for correlation with pKi, read-out: pIC50 (from experimental HDAC6 IC50) (converted)) | Compound | % of Activity, Inhibition of LPO, Fe (II) [1] | % of Activity, Inhibition of LPO, t-BHP [1] | % of Activity, Antiradical Activity [2] | IC50 (HEK 293 cells) | Effect on β-amyloid 1–40 aggregation (β-amyloid 1–40) | Effect on β-amyloid 1–42 aggregation (β-amyloid 1–42) |
| --- | --- | --- | --- | --- | --- | --- | --- | --- | --- | --- |
| – | – | – | – | CC(/C=C/C(=O)NO)=C\[C@@H](C)C(=O)c1ccc(N(C)C)cc1 [Trich. A, Trichostatin A, reference compound] | - (The ‘-’ mark indicates the lack of activity of the test substances (≤10%) in a particular test) | - (The ‘-’ mark indicates the lack of activity of the test substances (≤10%) in a particular test) | - (The ‘-’ mark indicates the lack of activity of the test substances (≤10%) in a particular test) | – | – | – |
| – | – | – | – | Cc1c(C)c2c(c(C)c1O)CCC(C)(C(=O)O)O2 (stereo not drawn) [Trolox, reference compound] | 97.21 ± 4.09% | 99.11 ± 3.72% | – | – | – | – |
| > 100 µM | 149 to 149.3 °C | – | – | O=C(NO)C12CC3CC(CC(C3)C1)C2 [compound 1, N-Hydroxyadamantane-1-Carboxamide] | - (The ‘-’ mark indicates the lack of activity of the test substances (≤10%) in a particular test) | - (The ‘-’ mark indicates the lack of activity of the test substances (≤10%) in a particular test) | - (The ‘-’ mark indicates the lack of activity of the test substances (≤10%) in a particular test) | > 100 µM | – | – |
| > 100 µM | 173.4 °C | – | – | O=C(NO)C1C2CC3CC(C2)CC1C3 (stereo not drawn) [compound 2, N-Hydroxyadamantane-2-Carboxamide] | - (The ‘-’ mark indicates the lack of activity of the test substances (≤10%) in a particular test) | - (The ‘-’ mark indicates the lack of activity of the test substances (≤10%) in a particular test) | 32.02 ± 3.33% | > 100 µM | – | – |
| 51.9 ± 3.56 µM | 94.8 °C | 0.69 ± 0.02 µM | – | CC1(C)[C@@H]2CC[C@@]1(C)[C@H](NC(=O)CCCCCCC(=O)NO)C2 [compound 11, N^1-Hydroxy-N^8-((1R,2R,4R)-1,7,7-Trimethylbicyclo [2.2.1]heptan-2-yl)octanediamide] | 28.39 ±7.41% | 35.96 ± 1.99% | 22.22 ± 1.40% | > 100 µM | – | – |
| > 100 µM | 50.4 °C | 4.06 ± 0.48 µM | – | CC1(C)[C@@H]2CC[C@@]1(C)[C@H](NC(=O)CCCCCCCC(=O)NO)C2 [compound 12, N^1-Hydroxy-N^9-((1R,2R,4R)-1,7,7-Trimethylbicyclo [2.2.1]heptan-2-yl)nonanediamide] | 44.02 ± 1.57% | 30.36 ± 1.98% | - (The ‘-’ mark indicates the lack of activity of the test substances (≤10%) in a particular test) | > 100 µM | – | – |
| > 100 µM | 45.1 °C | 9.44 ± 0.74 µM | – | CC1(C)[C@H]2CC[C@](C)(C2)[C@H]1NC(=O)CCCCCCC(=O)NO [compound 13, N^1-Hydroxy-N^8-((1R,2R,4S)-1,3,3-Trimethylbicyclo[2.2.1]heptan-2-yl)octanediamide] | 28.90 ± 3.38% | 24.02 ± 3.44% | - (The ‘-’ mark indicates the lack of activity of the test substances (≤10%) in a particular test) | > 100 µM | – | – |
| > 100 µM | 44.9 °C | 4.48 ± 0.13 µM | – | CC1(C)[C@H]2CC[C@](C)(C2)[C@H]1NC(=O)CCCCCCCC(=O)NO [compound 14, N^1-Hydroxy-N^9-((1R,2R,4S)-1,3,3-Trimethylbicyclo[2.2.1]heptan-2-yl)nonanediamide] | 37.91 ± 1.08% | 22.62 ± 4.31% | - (The ‘-’ mark indicates the lack of activity of the test substances (≤10%) in a particular test) | > 100 µM | – | – |
| 52 ± 2.61 µM | – | ≤ 6.5 µM | 15.3 µM | CC1(C)C(NC(=O)/C=C/c2ccc(C(=O)NO)cc2)[C@@]2(C)CC[C@H]1C2 (stereo partly drawn) [compound 24, N-Hydroxy-4-((E)-3-Oxo-3-(((1S,4S)-1,3,3-Trimethylbicyclo[2.2.1]heptan-2-yl)amino)prop-1-en-1-yl)benzamide] | 34.16 ± 1.37% | 20.63 ± 3.92% | 20.32 ± 0.41% | 60.2 ± 1 µM | noticeable fibrillation inhibition | noticeable fibrillation inhibition |
